Data: patent publication US12622968B2, “Formulation for oral delivery of proteins, peptides and small molecules with poor permeability” (R.P. Scherer Technologies, LLC, priority 2019, dated 2026)
Values joined by “and” are separate entries in the source; they are usually repeats but may differ in a detail not shown here. Equal values may be shown once. Read-outs that look alike come from different tables or passages of the source.

Assay: Single dose oral capsule pharmacokinetics of BHV-3500 in dogs (plasma LC-MS/MS)
Format: in vivo, beagle dogs
Conditions: for AUC(0-t): read-out: AUC0-4 hr; for concentration at 0.5 h: 0.5 h post-dose
Experimental: The pharmacokinetics (PK) of BHV-3500 after a single oral capsule of BHV-3500 in dogs were investigated.
After each dose, blood samples (approximately 3 mL from the jugular vein) for determination of plasma levels of BHV-3500 were obtained from of each dog at six time points (pre-dose; 15, 30, and 60 minutes and 2 and 4 hours post-dose. EDTA was used as the anticoagulant. Plasma samples were frozen at approximately −70′C until analyzed.
For the determination of BHV-3500 in plasma, a 50 μL aliquot from each sample was transferred into the appropriate well of a 96-well plate to which 10 μL of 50% acetonitrile (ACN) in water was added, followed by 250 μL of internal standard solution (10 ng/mL BHV-3500-d8 in ACN). After sealing the plate and vortexing for approximately 5 minutes, the plate was centrifuged at 4,000 rpm for 10 minutes at 4±4° C. A portion (100 μL) of the resulting supernatant was transferred to into the appropriate well (containing 300 μL 0.15% formic acid in water) of another 96-well plate. This plate was sealed and its contents mixed prior to instrumental analysis.
Freshly prepared BHV-3500 standard curves and QC samples were analyzed along with the study samples. Instrument calibrators were prepared by adding 10 μL of a stock BHV-3500 solution to 50 μL of blank dog plasma. Blank dog plasma was sourced from BioIVT (Hicksville, NY) and stored frozen at −20° C. Nominal calibrator concentrations ranged from 2.00 to 200 ng/mL. QC samples were prepared at concentrations of 6.00, 50.0 and 150 ng/mL. Calibrators and QC samples were processed for analysis following the extraction procedure described above.
Calibrator, QC and study samples were analyzed under LC-S/MS instrument conditions detailed in Table 7.
Calibration curves were calculated from the linear regression (weighting factor of 1/x2) of the analyte to internal standard peak area ratios versus the analyte concentrations. Concentrations of analyte in the samples were determined using the peak area ratios and the regression parameters of the calibration curves.
Individual animal plasma BHV-3500 concentration data at scheduled (nominal) sampling times were analyzed using the non-compartmental model f r extravascular administration with Phoenix WinNonlin software (Version 8.1; Certara, Princeton, NJ).
Elimination rate constant values (λz) were calculated by log-linear regression on data points of the terminal phase (using Phoenix WinNonlin's Best Fit Lambda Z Calculation Method option) when allowed by the data; the plasma elimination half-life (t1/2) was calculated as ln(2)/λz. Area under the plasma concentration-time curve values from time zero to the concentration at the 4 hour time point (AUC0-4 hr) were calculated by the linear-up/log-down trapezoidal rule.
Nominal dose levels were used for PK analysis. The PK parameters listed below were evaluated (as applicable and when allowed by the data). • Elimination half-life (t1/2) • Time of occurrence of maximum plasma concentration (Tmax) • Maximum plasma concentration (Cmax) • Area under plasma concentration-time curve [0 to the 4 hour time point; AUC0-4hr]

[1] = Group 6, oral capsule, 50 mg BHV-3500 in 25 mg DDM, individual dogs
[2] = female, beagle, dog, plasma, po, 20 mg, Group 3, oral capsule, 20 mg BHV-3500 in 25 mg DDM, average
[3] = female, beagle, dog, plasma, po, 20 mg, Group 3, oral capsule, 20 mg BHV-3500 in 25 mg DDM, individual dogs

Cc1cc(C[C@@H](NC(=O)N2CCC(c3cc4ccccc4[nH]c3=O)CC2)C(=O)N2CCN(C3CCN(C)CC3)CC2)cc2cn[nH]c12 [BHV-3500, (R)—N-(3-(7-methyl-1H indazol-5-yl)-1-(4-(1-methylpiperidin-4-yl)piperazin-1-yl)-1-oxopropan-2-yl)-4-(2-oxo-1,2 dihydroquinolin-3-yl)piperidine-1-carboxamide]
BHV-3500 Concentration in Dog Plasma (Group 6, oral capsule, 50 mg BHV-3500 in 25 mg DDM, 2 h post-dose, individual dogs): BQL (BQL = below quantitation limit (2.0 ng/mL))
BHV-3500 Concentration in Dog Plasma (Group 6, oral capsule, 50 mg BHV-3500 in 25 mg DDM, 4 h post-dose, individual dogs): BQL (BQL = below quantitation limit (2.0 ng/mL))
AUC0-4 hr [1]: 10.6 ng·h/mL and 24.0 ng·h/mL
Cmax [1]: 5.34 ng/mL and 2.42 ng/mL and 12.0 ng/mL
Tmax [1]: 1 h
concentration at 2 h (female, beagle, dog, plasma, oral, 20 mg, Group 2, 20 mg with Vehicle 6, 2 hours post-dose, read-out: mean plasma exposure): 22 nM
concentration at 2 h (female, beagle, dog, plasma, oral, 20 mg, Group 3, 20 mg with DDM, 2 hours post-dose, read-out: mean plasma exposure): 29.5 nM
concentration at 1 h (female, beagle, dog, plasma, oral, 50 mg, Group 5, 50 mg with Vehicle 6, 1 hour post-dose, read-out: mean plasma exposure): 18 nM
concentration at 2 h (female, beagle, dog, plasma, oral, 50 mg, Group 5, 50 mg with Vehicle 6, 2 hours post-dose, read-out: mean plasma exposure): 63.3 nM
concentration at 4 h (female, beagle, dog, plasma, oral, 50 mg, Group 6, 50 mg with DDM, 4 hours post-dose, read-out: mean plasma exposure): 13.5 nM
concentration at 1 h (female, beagle, dog, plasma, po, 20 mg, Group 2, oral capsule, 20 mg BHV-3500 in 900 mg vehicle of Formulation 2 (SEDDS excipients), 1 h post-dose, average, read-out: BHV-3500 Concentration in Dog Plasma): 2.57 ng/mL
concentration at 2 h (female, beagle, dog, plasma, po, 20 mg, Group 2, oral capsule, 20 mg BHV-3500 in 900 mg vehicle of Formulation 2 (SEDDS excipients), 2 h post-dose, average, read-out: BHV-3500 Concentration in Dog Plasma): 14.2 ng/mL
concentration at 4 h (female, beagle, dog, plasma, po, 20 mg, Group 2, oral capsule, 20 mg BHV-3500 in 900 mg vehicle of Formulation 2 (SEDDS excipients), 4 h post-dose, average, read-out: BHV-3500 Concentration in Dog Plasma): 3.09 ng/mL
AUC(0-t) (female, beagle, dog, plasma, po, 20 mg, Group 2, oral capsule, 20 mg BHV-3500 in 900 mg vehicle of Formulation 2 (SEDDS excipients), average): 19.8 ng·h/mL
Cmax (female, beagle, dog, plasma, po, 20 mg, Group 2, oral capsule, 20 mg BHV-3500 in 900 mg vehicle of Formulation 2 (SEDDS excipients), average, read-out: Cmax): 14.2 ng/mL
AUC(0-t) (female, beagle, dog, plasma, po, 20 mg, Group 2, oral capsule, 20 mg BHV-3500 in 900 mg vehicle of Formulation 2 (SEDDS excipients), individual dogs): 19.8 ng·h/mL
Tmax (female, beagle, dog, plasma, po, 20 mg, Group 2, oral capsule, 20 mg BHV-3500 in 900 mg vehicle of Formulation 2 (SEDDS excipients), individual dogs, read-out: Tmax): 2 h
Tmax (female, beagle, dog, plasma, po, 20 mg, Group 2, oral capsule, 20 mg BHV-3500 in 900 mg vehicle of Formulation 2 (SEDDS excipients), median, read-out: Tmax): 2 h
concentration at 0.5 h [2]: 14 ng/mL
concentration at 0.5 h [3]: 14 ng/mL
concentration at 1 h (female, beagle, dog, plasma, po, 20 mg, Group 3, oral capsule, 20 mg BHV-3500 in 25 mg DDM, 1 h post-dose, average, read-out: BHV-3500 Concentration in Dog Plasma): 3.56 ng/mL
concentration at 1 h (female, beagle, dog, plasma, po, 20 mg, Group 3, oral capsule, 20 mg BHV-3500 in 25 mg DDM, 1 h post-dose, individual dogs, read-out: BHV-3500 Concentration in Dog Plasma): 3.56 ng/mL
concentration at 2 h (female, beagle, dog, plasma, po, 20 mg, Group 3, oral capsule, 20 mg BHV-3500 in 25 mg DDM, 2 h post-dose, average, read-out: BHV-3500 Concentration in Dog Plasma): 18.9 ng/mL
concentration at 4 h (female, beagle, dog, plasma, po, 20 mg, Group 3, oral capsule, 20 mg BHV-3500 in 25 mg DDM, 4 h post-dose, average, read-out: BHV-3500 Concentration in Dog Plasma): 2.18 ng/mL
concentration at 4 h (female, beagle, dog, plasma, po, 20 mg, Group 3, oral capsule, 20 mg BHV-3500 in 25 mg DDM, 4 h post-dose, individual dogs, read-out: BHV-3500 Concentration in Dog Plasma): 2.18 ng/mL
AUC(0-t) [2]: 48.1 ng·h/mL
Cmax (female, beagle, dog, plasma, po, 20 mg, Group 3, oral capsule, 20 mg BHV-3500 in 25 mg DDM, average, read-out: Cmax): 17.3 ng/mL
AUC(0-t) [3]: 48.1 ng·h/mL
